Test results reported in patent US12637424B2, “Pharmaceutical salt of an arylpyrrole derivative” (SENTINEL ONCOLOGY LIMITED, priority 2020, dated 2026).

Columns and labels:
Assay in all cases: DiscoverX KinomeScreen competition binding assay (kinase selectivity panel)
[1] = molecular target: T1, panel of ninety-seven kinases (Homo sapiens, UniProt P16234); settings: PDGFRA; screened at 3000 nM
T1 construct: purchased DiscoverX; host or cells: E. coli (BL21-derived, T7 phage display) or HEK-293
Method: (§1) This has been investigated by testing atropisomer A-2 for off-target activity against a panel of ninety-seven kinases distributed across the kinome at a concentration of 3 μM using the DiscoverX KinomeScreen assay. The DiscoverX KinomeScreen assay is a site-directed competition binding assay which measures the binding affinity of a compound to a kinase, by use of a solid supported control compound which can bind or capture the kinases in solution. In the absence of a kinase-inhibitor test compound, all of the kinase will bind to the solid support. If a kinase-inhibitor test compound is added to the assay mix, the amount of kinase binding to the solid support will be reduced, the extent of reduction being dependent on the potency of the test compound as a kinase inhibitor. […] For most assays, kinase-tagged T7 phage strains were grown in parallel in 24-well blocks in an E. coli host derived from the BL21 strain. E. coli were grown to log-phase and infected with T7 phage from a frozen stock (multiplicity of infection=0.4) and incubated with shaking at 32° C. until lysis (90-150 minutes). The lysates were centrifuged (6,000×g) and filtered (0.2 μm) to remove cell debris. The remaining kinases were produced in HEK-293 cells and subsequently tagged with DNA for qPCR detection. Streptavidin-coated magnetic beads were treated with biotinylated small molecule ligands for 30 minutes at room temperature to generate affinity resins for kinase assays. The liganded beads were blocked with excess biotin and washed with blocking buffer (SeaBlock (Pierce), 1% BSA, 0.05% Tween 20, 1 mM DTT) to remove unbound ligand and to reduce non-specific phage binding. […] Test compounds were prepared as 40× stocks in 100% DMSO and directly diluted into the assay. All reactions were performed in polypropylene 384-well plates in a final volume of 0.02 ml. […] The beads were then re-suspended in elution buffer (1×PBS, 0.05% Tween 20, 0.5 μM non-biotinylated affinity ligand) and incubated at room temperature with shaking for 30 minutes. The kinase concentration in the eluates was measured by qPCR. Compounds that bind the kinase active site and directly (sterically) or indirectly (allosterically) prevent kinase binding to the immobilized ligand, will reduce the amount of kinase captured on the solid support. […] The strength of binding of the test molecule to the kinase can be expressed as the percent control (% Ctrl) The compound(s) were screened at 3000 nM concentration, and results for primary screen binding interactions are reported as ‘% Ctrl’, where lower numbers indicate stronger hits in the matrix on the following page(s). [formula] • negative control=DMSO (100% Ctrl) • positive control=control compound (0% Ctrl)

[2] = molecular target: T2, panel of ninety-seven kinases (Homo sapiens, UniProt P43403); settings: ZAP70; screened at 3000 nM
T2 construct: purchased DiscoverX; host or cells: E. coli (BL21-derived, T7 phage display) or HEK-293
Method: as §1

[3] = molecular target: T3, panel of ninety-seven kinases (Homo sapiens, UniProt P17612); settings: PRKACA; screened at 3000 nM
T3 construct: purchased DiscoverX; host or cells: E. coli (BL21-derived, T7 phage display) or HEK-293
Method: as §1

[4] = molecular target: T4, panel of ninety-seven kinases (Homo sapiens, UniProt P24941); settings: CDK2; screened at 3000 nM
T4 construct: purchased DiscoverX; host or cells: E. coli (BL21-derived, T7 phage display) or HEK-293
Method: as §1

[5] = molecular target: T5, panel of ninety-seven kinases (Homo sapiens, UniProt O15530); settings: PDPK1; screened at 3000 nM
T5 construct: purchased DiscoverX; host or cells: E. coli (BL21-derived, T7 phage display) or HEK-293
Method: as §1

[6] = molecular target: T6, panel of ninety-seven kinases (Homo sapiens, UniProt P50613); settings: CDK7; screened at 3000 nM
T6 construct: purchased DiscoverX; host or cells: E. coli (BL21-derived, T7 phage display) or HEK-293
Method: as §1

[7] = molecular target: T7, panel of ninety-seven kinases (Homo sapiens, UniProt P21802); settings: FGFR2; screened at 3000 nM
T7 construct: purchased DiscoverX; host or cells: E. coli (BL21-derived, T7 phage display) or HEK-293
Method: as §1

[8] = molecular target: T8, panel of ninety-seven kinases (Homo sapiens, UniProt P36507); settings: MAP2K2; screened at 3000 nM
T8 construct: purchased DiscoverX; host or cells: E. coli (BL21-derived, T7 phage display) or HEK-293
Method: as §1

[9] = molecular target: T9, panel of ninety-seven kinases (Homo sapiens, UniProt O96013); settings: PAK4; screened at 3000 nM
T9 construct: purchased DiscoverX; host or cells: E. coli (BL21-derived, T7 phage display) or HEK-293
Method: as §1

[10] = molecular target: T10, panel of ninety-seven kinases (Homo sapiens, UniProt Q13177); settings: PAK2; screened at 3000 nM
T10 construct: purchased DiscoverX; host or cells: E. coli (BL21-derived, T7 phage display) or HEK-293
Method: as §1

[11] = molecular target: T11, panel of ninety-seven kinases (Homo sapiens, UniProt Q15759); settings: MAPK11; screened at 3000 nM
T11 construct: purchased DiscoverX; host or cells: E. coli (BL21-derived, T7 phage display) or HEK-293
Method: as §1

[12] = molecular target: T12, panel of ninety-seven kinases (Homo sapiens, UniProt P80192); settings: MAP3K9; screened at 3000 nM
T12 construct: purchased DiscoverX; host or cells: E. coli (BL21-derived, T7 phage display) or HEK-293
Method: as §1

[13] = molecular target: T13, panel of ninety-seven kinases (Homo sapiens, UniProt Q9UM73); settings: ALK; screened at 3000 nM
T13 construct: purchased DiscoverX; host or cells: E. coli (BL21-derived, T7 phage display) or HEK-293
Method: as §1

[14] = molecular target: T14, panel of ninety-seven kinases (Homo sapiens, UniProt Q9HBH9); settings: MKNK2; screened at 3000 nM
T14 construct: purchased DiscoverX; host or cells: E. coli (BL21-derived, T7 phage display) or HEK-293
Method: as §1

[15] = molecular target: T15, panel of ninety-seven kinases (Homo sapiens, UniProt Q8IYT8); settings: ULK2; screened at 3000 nM
T15 construct: purchased DiscoverX; host or cells: E. coli (BL21-derived, T7 phage display) or HEK-293
Method: as §1

[16] = molecular target: T16, panel of ninety-seven kinases (Homo sapiens, UniProt P29597); settings: TYK2; screened at 3000 nM
T16 construct: purchased DiscoverX; host or cells: E. coli (BL21-derived, T7 phage display) or HEK-293
Method: as §1

[17] = molecular target: T17, panel of ninety-seven kinases (Homo sapiens, UniProt Q13873); settings: BMPR2; screened at 3000 nM
T17 construct: purchased DiscoverX; host or cells: E. coli (BL21-derived, T7 phage display) or HEK-293
Method: as §1

[18] = molecular target: T18, panel of ninety-seven kinases (Homo sapiens, UniProt Q9BVS4); settings: RIOK2; screened at 3000 nM
T18 construct: purchased DiscoverX; host or cells: E. coli (BL21-derived, T7 phage display) or HEK-293
Method: as §1

[19] = molecular target: T19, panel of ninety-seven kinases (Homo sapiens, UniProt P27448); settings: MARK3; screened at 3000 nM
T19 construct: purchased DiscoverX; host or cells: E. coli (BL21-derived, T7 phage display) or HEK-293
Method: as §1

[20] = molecular target: T20, panel of ninety-seven kinases (Homo sapiens, UniProt Q9BWU1); settings: CDK19; screened at 3000 nM
T20 construct: purchased DiscoverX; host or cells: E. coli (BL21-derived, T7 phage display) or HEK-293
Method: as §1

[21] = molecular target: T21, panel of ninety-seven kinases (Homo sapiens, UniProt O15075); settings: DCLK1; screened at 3000 nM
T21 construct: purchased DiscoverX; host or cells: E. coli (BL21-derived, T7 phage display) or HEK-293
Method: as §1

[22] = molecular target: T22, panel of ninety-seven kinases (Homo sapiens, UniProt P49137); settings: MAPKAPK2; screened at 3000 nM
T22 construct: purchased DiscoverX; host or cells: E. coli (BL21-derived, T7 phage display) or HEK-293
Method: as §1

T8 sequence (P36507 whole entry): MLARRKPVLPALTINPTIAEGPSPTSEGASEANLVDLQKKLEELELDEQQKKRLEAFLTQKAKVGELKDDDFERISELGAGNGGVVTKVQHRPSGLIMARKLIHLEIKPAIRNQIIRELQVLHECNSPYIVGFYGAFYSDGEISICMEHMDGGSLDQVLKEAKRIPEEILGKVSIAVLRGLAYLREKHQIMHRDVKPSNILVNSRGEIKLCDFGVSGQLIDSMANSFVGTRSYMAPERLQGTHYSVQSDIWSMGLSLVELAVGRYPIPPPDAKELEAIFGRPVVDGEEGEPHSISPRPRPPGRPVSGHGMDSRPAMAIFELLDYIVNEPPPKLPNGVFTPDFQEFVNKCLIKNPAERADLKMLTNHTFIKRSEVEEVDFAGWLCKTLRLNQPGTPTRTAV
T7 sequence (P21802 22-821): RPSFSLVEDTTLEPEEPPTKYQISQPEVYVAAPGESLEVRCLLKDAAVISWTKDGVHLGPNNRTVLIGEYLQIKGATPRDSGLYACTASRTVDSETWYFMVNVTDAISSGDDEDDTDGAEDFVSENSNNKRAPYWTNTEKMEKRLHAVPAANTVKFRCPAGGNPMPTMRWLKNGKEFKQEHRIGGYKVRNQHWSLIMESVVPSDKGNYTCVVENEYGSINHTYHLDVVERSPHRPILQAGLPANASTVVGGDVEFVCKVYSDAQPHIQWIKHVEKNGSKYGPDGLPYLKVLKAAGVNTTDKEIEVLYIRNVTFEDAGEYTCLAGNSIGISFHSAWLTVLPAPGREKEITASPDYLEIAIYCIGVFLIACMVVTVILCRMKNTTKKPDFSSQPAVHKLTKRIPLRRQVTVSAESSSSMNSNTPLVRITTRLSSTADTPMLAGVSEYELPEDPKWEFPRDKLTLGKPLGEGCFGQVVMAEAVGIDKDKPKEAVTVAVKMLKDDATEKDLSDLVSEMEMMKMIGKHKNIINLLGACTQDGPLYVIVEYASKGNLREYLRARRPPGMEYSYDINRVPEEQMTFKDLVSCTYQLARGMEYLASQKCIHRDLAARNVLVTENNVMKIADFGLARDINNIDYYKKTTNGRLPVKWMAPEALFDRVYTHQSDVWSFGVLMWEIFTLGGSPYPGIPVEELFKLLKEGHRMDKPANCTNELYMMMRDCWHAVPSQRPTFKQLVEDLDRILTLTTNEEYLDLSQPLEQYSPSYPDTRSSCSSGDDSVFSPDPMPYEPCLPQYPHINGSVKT
T10 sequence (Q13177 whole entry): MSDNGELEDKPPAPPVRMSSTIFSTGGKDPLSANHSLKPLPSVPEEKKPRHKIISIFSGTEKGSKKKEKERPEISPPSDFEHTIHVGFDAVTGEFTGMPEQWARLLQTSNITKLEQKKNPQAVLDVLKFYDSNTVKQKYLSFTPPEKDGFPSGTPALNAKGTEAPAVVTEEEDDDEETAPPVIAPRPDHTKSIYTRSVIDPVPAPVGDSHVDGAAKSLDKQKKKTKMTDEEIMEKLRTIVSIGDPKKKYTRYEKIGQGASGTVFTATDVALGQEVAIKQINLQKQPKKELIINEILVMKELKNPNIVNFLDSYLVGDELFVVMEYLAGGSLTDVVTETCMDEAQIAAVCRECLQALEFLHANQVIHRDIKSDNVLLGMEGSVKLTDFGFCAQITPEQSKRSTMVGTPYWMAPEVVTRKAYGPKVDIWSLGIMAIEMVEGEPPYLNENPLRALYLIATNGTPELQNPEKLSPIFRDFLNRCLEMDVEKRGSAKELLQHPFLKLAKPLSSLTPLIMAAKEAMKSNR
T12 sequence (P80192 whole entry): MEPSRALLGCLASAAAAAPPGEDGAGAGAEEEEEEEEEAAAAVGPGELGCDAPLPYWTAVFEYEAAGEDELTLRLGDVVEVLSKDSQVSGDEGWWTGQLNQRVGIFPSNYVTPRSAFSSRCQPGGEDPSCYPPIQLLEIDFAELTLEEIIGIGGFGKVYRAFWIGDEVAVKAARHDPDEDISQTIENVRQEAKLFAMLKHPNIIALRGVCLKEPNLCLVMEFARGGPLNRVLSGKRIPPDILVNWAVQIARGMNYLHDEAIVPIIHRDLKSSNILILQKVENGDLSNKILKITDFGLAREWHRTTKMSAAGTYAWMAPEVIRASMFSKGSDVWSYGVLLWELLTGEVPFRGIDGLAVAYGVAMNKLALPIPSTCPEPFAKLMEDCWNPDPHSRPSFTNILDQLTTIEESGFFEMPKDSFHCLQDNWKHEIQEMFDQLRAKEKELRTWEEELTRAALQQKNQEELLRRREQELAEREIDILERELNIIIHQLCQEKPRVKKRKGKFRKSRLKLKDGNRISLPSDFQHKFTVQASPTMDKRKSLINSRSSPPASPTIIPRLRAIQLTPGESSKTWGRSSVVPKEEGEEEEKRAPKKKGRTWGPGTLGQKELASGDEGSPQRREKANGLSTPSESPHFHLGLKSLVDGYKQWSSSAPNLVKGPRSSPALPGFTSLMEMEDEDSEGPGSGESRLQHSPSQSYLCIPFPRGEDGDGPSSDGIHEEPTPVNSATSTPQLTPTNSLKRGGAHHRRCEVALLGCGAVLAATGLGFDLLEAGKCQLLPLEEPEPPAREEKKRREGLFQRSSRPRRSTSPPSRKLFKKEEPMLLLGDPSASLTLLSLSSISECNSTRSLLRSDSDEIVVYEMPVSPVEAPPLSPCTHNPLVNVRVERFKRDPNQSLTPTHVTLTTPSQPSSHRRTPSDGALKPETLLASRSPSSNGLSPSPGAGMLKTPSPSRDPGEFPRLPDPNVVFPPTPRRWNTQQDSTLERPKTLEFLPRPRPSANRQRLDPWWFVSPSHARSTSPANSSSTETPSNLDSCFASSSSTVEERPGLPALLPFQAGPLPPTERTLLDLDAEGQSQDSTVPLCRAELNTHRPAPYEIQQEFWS
T22 sequence (P49137 whole entry): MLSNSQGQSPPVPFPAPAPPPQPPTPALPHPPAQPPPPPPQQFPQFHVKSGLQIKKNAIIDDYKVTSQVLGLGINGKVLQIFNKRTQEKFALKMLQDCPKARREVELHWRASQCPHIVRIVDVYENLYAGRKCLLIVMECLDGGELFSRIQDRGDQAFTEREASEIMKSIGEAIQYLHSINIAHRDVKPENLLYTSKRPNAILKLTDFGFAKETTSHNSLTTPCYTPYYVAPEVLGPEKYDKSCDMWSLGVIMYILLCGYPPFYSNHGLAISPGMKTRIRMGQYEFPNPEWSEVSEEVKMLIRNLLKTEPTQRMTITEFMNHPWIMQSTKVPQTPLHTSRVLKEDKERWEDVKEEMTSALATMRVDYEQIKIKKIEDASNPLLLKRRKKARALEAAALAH
T17 sequence (Q13873 27-1038): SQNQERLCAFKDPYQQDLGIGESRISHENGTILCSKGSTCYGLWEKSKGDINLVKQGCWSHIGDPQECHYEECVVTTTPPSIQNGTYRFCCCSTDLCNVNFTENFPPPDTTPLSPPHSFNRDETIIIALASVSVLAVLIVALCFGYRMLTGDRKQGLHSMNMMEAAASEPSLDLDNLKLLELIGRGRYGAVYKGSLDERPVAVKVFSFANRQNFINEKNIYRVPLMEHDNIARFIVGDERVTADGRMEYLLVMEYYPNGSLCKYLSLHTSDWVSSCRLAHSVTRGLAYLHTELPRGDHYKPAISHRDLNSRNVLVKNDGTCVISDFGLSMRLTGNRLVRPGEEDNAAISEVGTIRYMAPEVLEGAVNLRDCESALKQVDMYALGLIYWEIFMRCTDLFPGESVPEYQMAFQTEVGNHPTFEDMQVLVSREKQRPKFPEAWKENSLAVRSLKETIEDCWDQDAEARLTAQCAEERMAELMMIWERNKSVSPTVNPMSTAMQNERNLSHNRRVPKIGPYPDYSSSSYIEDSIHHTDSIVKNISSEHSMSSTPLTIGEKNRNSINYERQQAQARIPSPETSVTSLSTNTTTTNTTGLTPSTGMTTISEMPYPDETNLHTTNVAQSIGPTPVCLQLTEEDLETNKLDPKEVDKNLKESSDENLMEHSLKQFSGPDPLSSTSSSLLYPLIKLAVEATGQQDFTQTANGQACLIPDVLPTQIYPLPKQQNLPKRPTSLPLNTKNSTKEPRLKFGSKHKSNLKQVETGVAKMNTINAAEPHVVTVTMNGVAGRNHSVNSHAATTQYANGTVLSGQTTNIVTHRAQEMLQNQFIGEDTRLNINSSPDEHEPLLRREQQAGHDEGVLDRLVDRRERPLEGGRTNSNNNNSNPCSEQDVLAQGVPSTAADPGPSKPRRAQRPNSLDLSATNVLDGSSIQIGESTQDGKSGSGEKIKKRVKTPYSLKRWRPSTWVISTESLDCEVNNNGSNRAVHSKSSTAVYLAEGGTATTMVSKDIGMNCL
T5 sequence (O15530 whole entry): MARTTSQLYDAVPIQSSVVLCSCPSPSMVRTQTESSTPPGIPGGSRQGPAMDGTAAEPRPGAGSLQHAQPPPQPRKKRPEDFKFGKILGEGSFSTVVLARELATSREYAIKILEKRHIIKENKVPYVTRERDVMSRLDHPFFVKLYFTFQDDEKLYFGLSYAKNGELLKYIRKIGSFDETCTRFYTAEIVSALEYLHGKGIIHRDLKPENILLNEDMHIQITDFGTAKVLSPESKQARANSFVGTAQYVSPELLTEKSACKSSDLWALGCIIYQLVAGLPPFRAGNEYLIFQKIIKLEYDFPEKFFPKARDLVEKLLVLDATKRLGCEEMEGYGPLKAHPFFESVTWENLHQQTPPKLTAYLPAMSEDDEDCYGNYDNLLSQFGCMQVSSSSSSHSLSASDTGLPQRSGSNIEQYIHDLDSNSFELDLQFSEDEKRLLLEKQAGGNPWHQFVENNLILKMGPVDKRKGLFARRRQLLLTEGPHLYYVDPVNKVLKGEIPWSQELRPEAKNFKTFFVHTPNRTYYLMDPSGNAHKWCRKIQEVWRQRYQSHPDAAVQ

For `CN(C)CCNC(=O)c1ccc(-c2ccc(-c3ccc(Cl)cc3)n2-c2ccccc2C(F)(F)F)cc1` (single isomer, unassigned) [Atropisomer A-2], the “% Ctrl @ 3 μM” value [1] was 100 % Ctrl, the “% Ctrl @ 3 μM” value [2] was 92 % Ctrl and the “% Ctrl @ 3 μM” value [3] was 100 % Ctrl. For the same compound, the “% Ctrl @ 3 μM” value [4] was 94 % Ctrl, the “% Ctrl @ 3 μM” value [5] was 96 % Ctrl and the “% Ctrl @ 3 μM” value [6] was 100 % Ctrl. For the same compound, the “% Ctrl @ 3 μM” value [7] was 85 % Ctrl, the “% Ctrl @ 3 μM” value [8] was 81 % Ctrl and the “% Ctrl @ 3 μM” value [9] was 100 % Ctrl. For the same compound, the “% Ctrl @ 3 μM” value [10] was 100 % Ctrl, the “% Ctrl @ 3 μM” value [11] was 99 % Ctrl and the “% Ctrl @ 3 μM” value [12] was 96 % Ctrl. The “% Ctrl @ 3 μM” value [13] was 89 % Ctrl, the “% Ctrl @ 3 μM” value [14] was 85 % Ctrl and the “% Ctrl @ 3 μM” value [15] was 93 % Ctrl. The “% Ctrl @ 3 μM” value [16] was 100 % Ctrl, the “% Ctrl @ 3 μM” value [17] was 82 % Ctrl and the “% Ctrl @ 3 μM” value [18] was 100 % Ctrl. The “% Ctrl @ 3 μM” value [19] was 100 % Ctrl, the “% Ctrl @ 3 μM” value [20] was 81 % Ctrl and the “% Ctrl @ 3 μM” value [21] was 87 % Ctrl. For the same compound, the “% Ctrl @ 3 μM” value [22] was 75 % Ctrl.
